Structures are written as SMILES. Values after ≈ are worked out from the molar mass of the structure shown. Read-outs that look alike come from different tables or passages of the source.

The test system of the assay is Pseudomonas aeruginosa. Nature of the assay: standard agar inclusion test screen, minimum inhibitory concentration against Pseudomonas. The class given is cell-based. The conditions noted are these: read-out: Minimum inhibitory concentrations (MIC). How it is done:
Compounds of this invention where R, R', R" and Y are hydrogen have antibacterial activity against a variety of bacteria and are especially active against Pseudomonas. Minimum inhibitory concentrations (MIC), as obtained in a standard agar inclusion test screen, range from 25 to 200 μg/ml against Pseudomonas aeruginosa.

Setting [1] is: standard agar inclusion test, Pseudomonas (aeruginosa).

Regarding `NC[C@H]1O[C@H](O[C@H]2[C@H](O)[C@@H](O)[C@H](N)C[C@@H]2N)[C@H](N)[C@@H](O)[C@@H]1O` [neamine, 2-deoxy-4-O-(2,6-diamino-2,6-dideoxy-α-D-glucopyranosyl)-D-streptamine, reference compound], the MIC (Pseudomonas aeruginosa) is greater than 200 µg/mL.
Take `NC[C@H]1O[C@H](O[C@H]2[C@H](O)[C@@H](O)[C@H](N)C[C@@H]2N)[C@H](N)[C@@H](S)[C@@H]1O` [2-deoxy-4-O-(2,6-diamino-3-mercapto-2,3,6-trideoxy-α-D-glucopyranosyl)-D-streptamine]: under setting [1], the MIC came out at 63 µg/mL (≈ 186 µM).
Regarding `NC[C@H]1O[C@H](O[C@H]2[C@H](O)[C@@H](O)[C@H](N)C[C@@H]2N)[C@H](N)[C@@H](O)[C@@H]1S` [2-deoxy-4-O-(2,6-diamino-4-mercapto-2,4,6-trideoxy-α-D-glucopyranosyl)-D-streptamine], under setting [1], the MIC stood at 25 µg/mL (≈ 73.9 µM).

These data come from patent US4048430A, “Mercaptopseudotrisaccharides” (SmithKline Corporation, priority 1975, dated 1977).
